# From article PMC10620772, “Design, synthesis, and biological evaluation of new pyrimidine-5-carbonitrile derivatives as novel anti-cancer, dual EGFR^WT/COX-2 inhibitors with docking studies” (RSC Advances, 2023)
# Columns and labels:
# [1] = system: EKVX; experiment: NCI60 antitumor screening; format: cell-based, human; conditions: Homo sapiens; 10 μM single dose; EKVX (non-small cell lung cancer); read-out: growth inhibition percent (GI%)
# [2] = system: T-47D; experiment: NCI60 antitumor screening; format: cell-based, human; conditions: Homo sapiens, T47D; 10 μM single dose; T-47D (breast cancer); read-out: growth inhibition percent (GI%)
# [3] = system: LOX IMVI; experiment: NCI60 antitumor screening; format: cell-based, human; conditions: Homo sapiens; 10 μM single dose; LOX IMVI (melanoma); read-out: growth inhibition percent (GI%)
# [4] = system: HS 578T; experiment: NCI60 antitumor screening; format: cell-based, human; conditions: Homo sapiens; 10 μM single dose; HS 578T (breast cancer); read-out: growth inhibition percent (GI%)
# [5] = system: SW-620; experiment: NCI60 antitumor screening; format: cell-based, human; conditions: Homo sapiens; 10 μM single dose; SW-620 (colon cancer); read-out: growth inhibition percent (GI%)
# [6] = system: NCI-H460; experiment: NCI60 antitumor screening; format: cell-based, human; conditions: Homo sapiens; 10 μM single dose; NCI-H460 (non-small cell lung cancer); read-out: growth inhibition percent (GI%)
# [7] = system: U251; experiment: NCI60 antitumor screening; format: cell-based, human; conditions: Homo sapiens, U-251; 10 μM single dose; U251 (CNS cancer); read-out: growth inhibition percent (GI%)
# [8] = system: SF-539; experiment: NCI60 antitumor screening; format: cell-based, human; conditions: Homo sapiens; 10 μM single dose; SF-539 (CNS cancer); read-out: growth inhibition percent (GI%)
# [9] = system: OVCAR-4; experiment: NCI60 antitumor screening; format: cell-based, human; conditions: Homo sapiens; 10 μM single dose; OVCAR-4 (ovarian cancer); read-out: growth inhibition percent (GI%)
# [10] = system: NCI60 cell lines panel; experiment: NCI60 antitumor screening, full panel; format: cell-based, human; conditions: for inhibition at 10 µM: Homo sapiens, 10 μM single dose, mean over NCI60 cell lines, read-out: Mean growth inhibition percent (GI%)
# How it was run: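 Percent growth inhibition (GI%) was recorded for each of the NCI60 lines, spanning leukaemia, lung, colon, CNS, melanoma, ovarian, renal, prostate and breast cancers, after exposure to compounds at one concentration, 10 μM.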
# [11] = system: MDA-MB-435; experiment: NCI60 antitumor screening; format: cell-based, human; conditions: Homo sapiens; 10 μM single dose; MDA-MB-435 (melanoma); read-out: growth inhibition percent (GI%)
# [12] = system: A498; experiment: NCI60 antitumor screening; format: cell-based, human; conditions: Homo sapiens; 10 μM single dose; A498 (renal cancer); read-out: growth inhibition percent (GI%)
# [13] = system: SR; experiment: NCI60 antitumor screening; format: cell-based, human; conditions: Homo sapiens; 10 μM single dose; SR (leukaemia); read-out: growth inhibition percent (GI%)
# [14] = system: COLO 205; experiment: NCI60 antitumor screening; format: cell-based, human; conditions: Homo sapiens; 10 μM single dose; COLO 205 (colon cancer); read-out: growth inhibition percent (GI%)
# [15] = system: HCT-116; experiment: NCI60 antitumor screening; format: cell-based, human; conditions: Homo sapiens; 10 μM single dose; HCT-116 (colon cancer); read-out: growth inhibition percent (GI%)
# [16] = system: MALME-3M; experiment: NCI60 antitumor screening; format: cell-based, human; conditions: Homo sapiens; 10 μM single dose; MALME-3M (melanoma); read-out: growth inhibition percent (GI%)
# [17] = system: SK-MEL-28; experiment: NCI60 antitumor screening; format: cell-based, human; conditions: Homo sapiens; 10 μM single dose; SK-MEL-28 (melanoma); read-out: growth inhibition percent (GI%)
# [18] = system: NCI/ADR-RES; experiment: NCI60 antitumor screening; format: cell-based, human; conditions: Homo sapiens; 10 μM single dose; NCI/ADR-RES (ovarian cancer); read-out: growth inhibition percent (GI%)
# [19] = system: MDA-MB-231/ATCC; experiment: NCI60 antitumor screening; format: cell-based, human; conditions: Homo sapiens; 10 μM single dose; MDA-MB-231/ATCC (breast cancer); read-out: growth inhibition percent (GI%)
# [20] = system: K-562; experiment: NCI60 antitumor screening; format: cell-based, human; conditions: Homo sapiens; 10 μM single dose; (leukaemia); read-out: growth inhibition percent (GI%)
# [21] = system: HOP-62; experiment: NCI60 antitumor screening; format: cell-based, human; conditions: Homo sapiens; 10 μM single dose; HOP-62 (non-small cell lung cancer); read-out: growth inhibition percent (GI%)
# [22] = system: NCI-H322M; experiment: NCI60 antitumor screening; format: cell-based, human; conditions: Homo sapiens; 10 μM single dose; NCI-H322M (non-small cell lung cancer); read-out: growth inhibition percent (GI%)
smiles,measurement,setting,value
"Cc1ccc(CSc2nc(-c3ccc(F)cc3)c(C#N)c(N3CCN(C)CC3)n2)cc1 [4l, 4-(4-Fluorophenyl)-2-((4-methylbenzyl)thio)-6-(4-methylpiperazin-1-yl) pyrimidine-5-carbonitrile]",inhibition at 10 µM,[1],12.5%
same,inhibition at 10 µM,[2],18.1%
same,inhibition at 10 µM,[3],12.8%
same,inhibition at 10 µM,[4],31.1%
same,inhibition at 10 µM,[5],< 10%
same,inhibition at 10 µM,[6],< 10%
same,inhibition at 10 µM,[7],< 10%
same,inhibition at 10 µM,[8],31.8%
same,inhibition at 10 µM,[9],< 10%
same,One-dose activity over the NCI60 panel,[10]; 10 μM,moderate activity against numerous cell lines
same,inhibition at 10 µM,[10],11.2%
same,inhibition at 10 µM,[11],< 10%
same,inhibition at 10 µM,[12],< 10%
same,inhibition at 10 µM,[13],< 10%
same,inhibition at 10 µM,[14],< 10%
same,inhibition at 10 µM,[15],13.1%
same,inhibition at 10 µM,[16],11.7%
same,inhibition at 10 µM,[17],< 10%
same,inhibition at 10 µM,[18],12.7%
same,inhibition at 10 µM,[19],28.9%
same,inhibition at 10 µM,[20],28.6%
same,inhibition at 10 µM,[21],12.8%
same,inhibition at 10 µM,[22],18%
"N#Cc1c(-c2ccc(F)cc2)nc(SCc2ccccc2)nc1N1CCN(c2ccccc2)CC1 [4m, 2-(Benzylthio)-4-(4-fluorophenyl)-6-(4-phenylpiperazin-1-yl) pyrimidine-5-carbonitrile]",inhibition at 10 µM,[1],< 10%
same,inhibition at 10 µM,[2],15.1%
same,inhibition at 10 µM,[3],< 10%
same,melting point,,165 to 167 °C
same,inhibition at 10 µM,[4],< 10%
same,inhibition at 10 µM,[5],< 10%
same,inhibition at 10 µM,[6],< 10%
same,inhibition at 10 µM,[7],< 10%
same,inhibition at 10 µM,[8],< 10%
same,inhibition at 10 µM,[9],< 10%
same,inhibition at 10 µM,[10],< 10%
same,inhibition at 10 µM,[11],< 10%
same,inhibition at 10 µM,[12],< 10%
same,inhibition at 10 µM,[13],< 10%
same,inhibition at 10 µM,[14],< 10%
same,inhibition at 10 µM,[15],< 10%
same,inhibition at 10 µM,[16],< 10%
same,inhibition at 10 µM,[17],< 10%
same,inhibition at 10 µM,[18],< 10%
same,inhibition at 10 µM,[19],< 10%
same,inhibition at 10 µM,[20],10.6%
same,inhibition at 10 µM,[21],< 10%
same,inhibition at 10 µM,[22],< 10%
